Each structure is given as a SMILES string. Where only a bound is given, the exact number is not on record here.

The source of these data is ChEMBL document CHEMBL1140732, “2-(3-aryl-3-oxopropen-1-yl)-9-tert-butyl-paullones: a new antileishmanial chemotype” (J Med Chem, 2008).

Data set [1] deals with Leishmania donovani. Put plainly: microbe, parasite or virus in culture. The format is functional. To be noted: 1S-C12d.
Description: Antileishmanial activity against Leishmania donovani MHOM/SD/1962/1S-C12d axenic amastigotes at 15 uM by alamar blue viability assay
Data set [2] deals with Leishmania donovani. Put plainly: microbe, parasite or virus in culture. The format is functional. Conditions: 1S-C12d, THP-1.
Description: Growth inhibition of Leishmania donovani MHOM/SD/1962/1S-C12d axenic amastigotes in infected THP1 macrophages at 5 uM by alamar blue viability assay
Data set [3] deals with THP-1. Put plainly: Toxicity against human THP1 cells at 5 uM by alamar blue viability assay. Conditions: thp-1, 5 µM. (In general: Alamar Blue is a resazurin reagent that responds to reducing activity.)
Data set [4] has as its system Leishmania donovani. Put plainly: microbe, parasite or virus in culture. The format is functional. To be noted: 1S-C12d. This is another data set of the same source.
Description: Antileishmanial activity against Leishmania donovani MHOM/SD/1962/1S-C12d axenic amastigotes by alamar blue viability assay
The subject of data set [5] is THP-1. Put plainly: Toxicity against human THP1 cells at 1 uM by alamar blue viability assay. The format is cell-based. Conditions: thp-1, 1 µM.
The test system of data set [6] is Leishmania donovani. In words: Growth inhibition of Leishmania donovani MHOM/SD/1962/1S-C12d […] amastigotes in infected THP1 macrophages at 1 uM by alamar blue viability assay. The format is functional. Conditions: THP-1.
A short description of data set [7]: Inhibition of fumarate reductase in crude mitochondria fraction of Leishmania major promastigotes.
Data set [8] in a line: Inhibition of fumarate reductase in permeabilized Leishmania major promastigotes.
The test system of data set [9] is Leishmania donovani. In words: Inhibition of Leishmania donovani infection in mouse macrophages. The format is functional. Conditions: read-out: ED50 (the source's name).
The nature of data set [10]: Toxicity against mouse macrophages at 10 uM. The format is cell-based. To be noted: macrophage.

For the compound `CC(=O)/C=C/c1ccc2c(c1)-c1[nH]c3ccc(C)cc3c1CC(=O)N2`, the inhibition (as a rule, the relative decrease from the control value, in per cent) at 15 µM in [1] was 65.2%. For the same compound, the inhibition at 5 µM in data set [2] came out at 0%. For the same compound, in data set [3], the Activity stood at 0%. For the same compound, the concentration for 50% growth inhibition (GI50) (usually the concentration that inhibits growth by half) in data set [4] is 12 µM.
Take `CC(=O)/C=C/c1ccc2c(c1)-c1[nH]c3ccc(C#N)cc3c1CC(=O)N2`: in data set [1], at 15 µM the inhibition was 9.8%. This compound registered an inhibition at 5 µM in data set [2] of 0%. In [3], this compound displayed an Activity of 48%.
Turning to `CC(=O)/C=C/c1ccc2c(c1)-c1[nH]c3ccc(C(C)(C)C)cc3c1CC(=O)N2`, in [1], the inhibition at 15 µM worked out at 99%. In addition, the inhibition at 5 µM in data set [2] stood at 56.2%. This compound also returned an Activity in data set [3] of 62%. Moreover, growth in data set [4] was halved (GI50) at 2.8 µM.
On to `O=C1Cc2c([nH]c3ccccc23)-c2cc(/C=C/C(=O)c3ccccc3)ccc2N1`, for which the inhibition at 15 µM in data set [1] amounted to 99.6%. In addition, the inhibition at 5 µM in data set [2] came out at 0%. In [3], this compound came in with an Activity of 0%. The compound also came in with a 50% growth inhibitory concentration (GI50) in [4] of 5 µM.
Compound `Cc1ccc2[nH]c3c(c2c1)CC(=O)Nc1ccc(/C=C/C(=O)c2ccc(Cl)cc2)cc1-3` showed an inhibition at 15 µM in [1] of 17.4%. The same compound returned an inhibition at 5 µM in [2] of 0%. In addition, the Activity in [3] amounted to 0%.
Regarding `CC(C)(C)c1ccc2[nH]c3c(c2c1)CC(=O)Nc1ccc(/C=C/C(=O)c2ccccc2)cc1-3`, the inhibition at 15 µM in data set [1] came out at 99%. Moreover, at 5 µM the inhibition in [2] was 61.8%. In [3], the Activity is listed as 0%. The GI50 in data set [4] stood at 1.1 µM.
The compound `COc1ccc(C(=O)/C=C/c2ccc3c(c2)-c2[nH]c4ccc(C(C)(C)C)cc4c2CC(=O)N3)cc1` came in with an inhibition at 15 µM in data set [1] of 97.5%. This compound came in with an inhibition at 5 µM in [2] of 71.7%. The same compound gave an Activity in [3] of 0%. For the same compound, the GI50 in [4] stood at 1.2 µM.
In data set [1], `CC(C)(C)c1ccc2[nH]c3c(c2c1)CC(=O)Nc1ccc(/C=C/C(=O)c2ccc(Cl)cc2)cc1-3` showed an inhibition at 15 µM of 98.3%. This compound also registered an inhibition at 5 µM in data set [2] of 76.8%. The Activity in data set [3] is 0%. In addition, the GI50 in data set [4] was 1.2 µM.
In the same order, the values of `CC(C)(C)c1ccc2[nH]c3c(c2c1)CC(=O)Nc1ccc(/C=C/C(=O)c2ccco2)cc1-3` are 97.6%, 76.2%, 3.3% and 0.76 µM.
Taken in the same sequence, the figures for `CC(C)(C)c1ccc2[nH]c3c(c2c1)CC(=O)Nc1ccc(/C=C/C(=O)c2cccnc2)cc1-3` were 98.1%, 76.2%, 0% and 0.78 µM.
Taken in the same sequence, the figures for `COc1cc(C(=O)/C=C/c2ccc3c(c2)-c2[nH]c4ccc(C(C)(C)C)cc4c2CC(=O)N3)cc(OC)c1OC` were 96.8%, 99.2%, 92.7% and 1.1 µM.
Compound `COc1ccc(OC)c(C(=O)/C=C/c2ccc3c(c2)-c2[nH]c4ccc(C(C)(C)C)cc4c2CC(=O)N3)c1` gave an inhibition at 15 µM in data set [1] of 96.8%. Further, at 5 µM the inhibition in [2] was 93.8%. In addition, the Activity in [3] was determined as 95.7%. Also, the GI50 in data set [4] was determined as 1.1 µM.
`COc1ccc(C(=O)/C=C/c2ccc3c(c2)-c2[nH]c4ccc(C(C)(C)C)cc4c2CC(=O)N3)c(OC)c1` had an inhibition at 15 µM in data set [1] of 93.6%. This compound also came in with an inhibition at 5 µM in data set [2] of 85.6%. In data set [3], the Activity was 0%. In addition, the GI50 in [4] was found to be 0.84 µM.
In turn, `COc1ccc(C(=O)/C=C/c2ccc3c(c2)-c2[nH]c4ccc(C(C)(C)C)cc4c2CC(=O)N3)cc1OC` registered an inhibition at 15 µM in [1] of 95.5%. Further, in data set [2], the inhibition at 5 µM was found to be 86%. The Activity in data set [3] worked out at 49.7%. This compound also registered a GI50 in data set [4] of 1 µM.
Taken in the same sequence, the figures for `CC(=O)/C=C/c1ccc2c(c1)-c1[nH]c3ccccc3c1CC(=O)N2` were 98.7%, 11.4%, 0% and 3.4 µM.
On to `CC(=O)/C=C/c1ccc2c(c1)-c1[nH]c3ccc(F)cc3c1CC(=O)N2`, for which, in [1], 15 µM produced 45.4% inhibition. The compound also showed an inhibition at 5 µM in data set [2] of 0%. The Activity in data set [3] was 0%.
`CC(C)(C)c1ccc2[nH]c3c(c2c1)CC(=O)Nc1ccc(/C=C/C(=O)c2cccs2)cc1-3`: 15 µM produced 98.8% inhibition in data set [1]. At 5 µM the inhibition in data set [2] was 79.3%. Besides, the Activity in data set [3] turned out to be 60.5%. In addition, in data set [4], growth was halved (GI50) at 1 µM.
`CC(C)(C)c1ccc2[nH]c3c(c2c1)CC(=O)Nc1ccc(/C=C/C(=O)c2ccc(O)cc2)cc1-3`: the inhibition at 15 µM in data set [1] came out at 97.2%. In addition, the inhibition at 5 µM in data set [2] is 54.8%. Further, the Activity in [3] was found to be 80.3%. In data set [4], this compound showed a GI50 of 3 µM.
Turning to `CC(C)(C)c1ccc2[nH]c3c(c2c1)CC(=O)Nc1ccc(/C=C/C#N)cc1-3`, in data set [1], the inhibition at 15 µM is 63.8%. 5 µM produced 47.3% inhibition in data set [2]. Moreover, the Activity in data set [3] is on record as 0%. Moreover, in data set [4], it took 3.6 µM to inhibit growth by half (GI50).
In the same order, the values of `CC(C)(C)c1ccc2[nH]c3c(c2c1)CC(=O)Nc1ccc(C#Cc2ccccc2)cc1-3` are 79.6%, 72%, 9% and 0.86 µM.
`COc1ccc(C(=O)/C=C/c2ccc(NC(C)=O)cc2)cc1` registered an inhibition at 15 µM in data set [1] of 69.6%.
Regarding `C[C@@H]1[C@H](O)[C@@H](C)/C=C/C=C/C=C/C=C/C=C/C=C/C=C/[C@H](O[C@@H]2O[C@H](C)[C@@H](O)[C@H](N)[C@@H]2O)C[C@@H]2O[C@](O)(C[C@@H](O)C[C@@H](O)[C@H](O)CC[C@@H](O)C[C@@H](O)CC(=O)O[C@H]1C)C[C@H](O)[C@H]2C(=O)O` (stereo in doubt) [AMPHOTERICIN B], the Activity in data set [5] was > 90%. For the same compound, the inhibition at 1 µM in data set [6] is > 90%.
On to `C=CC(C)(C)c1cc(/C=C/C(=O)c2ccc(O)cc2)c(OC)cc1O` [LICOAGROCHACONE A], for which the IC50 (in general, the concentration needed to halve the response being measured) came to 1.4 µM in data set [7] and 1.2 µM in data set [8].
Regarding `N#Cc1ccc2[nH]c3c(c2c1)CC(=O)Nc1ccccc1-3` [PAULLONE 2], the EC50 in data set [9] worked out at 19.6 µM. Besides, the Activity entry in data set [10] was “Toxic”.
